Experimental data published in patent publication US20250262170A1, “COMBINATIONS OF BETA 2-ADRENERGIC RECEPTOR AGONISTS AND BETA 3-ADRENERGIC RECEPTOR AGONISTS, AND MEDICAL USES THEREOF” (ATROGI AB, priority 2022, published 2025).

Biological target: T1, human β3-adrenergic receptor (Homo sapiens, UniProt P13945)
T1 construct: expressed in transfected cells
Test: cAMP levels in CHO-K1 cells expressing the human β3-adrenergic receptor
Assay type: cell-based
Details: 15 min; for Emax at 10 µM: CHO-K1, 0.25 h, read-out: Activity (intracellular cAMP compared to that of isoproterenol)
Protocol: CHO-K1 cells stably expressing the human β3-adrenergic receptors were serum-starved overnight and stimulated with an agonist, final concentration 1×10^−5 M, for 15 min in stimulation buffer (HBSS supplemented with 1% BSA, 5 mM HEPES and 1 mM IBMX, pH 7.4) The medium was then aspirated and to end the reaction, 100 μL of 95% EtOH was added to each well of the 24-well plate and cells were kept at −20° C. overnight. The next day EtOH was allowed to evaporate and 250 μL of lysis buffer (1% BSA, 5 mM HEPES and 0.3% Tween-20, pH 7.4) was added to each well. The plate was kept at −80° C. for 30 min and thawed in room temperature. Intracellular cAMP levels were detected using an alpha screen cAMP kit (6760635D from Perkin Elmer). The activity for each compound is compared to that of isoproterenol.

T1 sequence (P13945 whole entry): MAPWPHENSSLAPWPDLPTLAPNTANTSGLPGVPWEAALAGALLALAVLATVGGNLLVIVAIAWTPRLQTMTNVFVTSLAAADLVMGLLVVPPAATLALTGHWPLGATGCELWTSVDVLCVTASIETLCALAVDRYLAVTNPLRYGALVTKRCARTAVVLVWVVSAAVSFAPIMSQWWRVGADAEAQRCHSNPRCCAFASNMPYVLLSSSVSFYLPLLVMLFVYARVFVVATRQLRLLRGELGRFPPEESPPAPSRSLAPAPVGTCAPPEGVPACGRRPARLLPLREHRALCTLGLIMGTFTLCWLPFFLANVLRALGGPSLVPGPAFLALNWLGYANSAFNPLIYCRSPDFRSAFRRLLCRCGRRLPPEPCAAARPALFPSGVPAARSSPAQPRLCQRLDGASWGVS

Row | SMILES | Emax at 10 µM [%] | Activity (intracellular cAMP compared to that of isoproterenol) (10 μM)
1 | CC(C)(C[C@H]1CC[C@H](NS(=O)(=O)C(F)(F)F)CC1)NC[C@H](O)c1cccc(F)c1 [Compound 30, 1,1,1-trifluoro-N-((trans)-4-(2-(((R)-2-(3-fluorophenyl)-2-hydroxyethyl)amino)-2-methylpropyl)cyclohexyl)-methanesulfonamide] | > 75 | –
2 | CCCS(=O)(=O)N[C@H]1CC[C@H](CC(C)(C)NC[C@H](O)c2cccc(F)c2)CC1 [Compound 31, N-((trans)-4-(2-(((R)-2-(3-fluorophenyl)-2-hydroxy-ethyl)amino)-2-methyl-propyl)cyclohexyl)propane-1-sulfonamide] | > 75 | –
3 | O[C@H](c1cncc(F)c1)C12CCC(COc3ccc(OC(F)(F)F)cc3)(CC1)N2 [Compound 32, (R)-(5-fluoropyridin-3-yl)((1r,4R)-4-((4-(trifluoro-methoxy)phenoxy)methyl)-7-azabicyclo[2.2.1]heptan-1-yl)methanol] | > 75 | –
4 | CC(C)(C[C@H]1CC[C@H](NC(=O)C(F)(F)F)CC1)NC[C@H](O)c1cccc(F)c1 [Compound 33, 2,2,2-trifluoro-N-((1R,4r)-4-(2-(((R)-2-(3-fluorophenyl)-2-hydroxyethyl)amino)-2-methylpropyl)cyclohexyl)-acetamide] | > 75 | –
5 | CC(C)(C[C@H]1CC[C@H](NS(C)(=O)=O)CC1)NC[C@H](O)c1cccc(C#N)n1 [Compound 35, N-((trans)-4-(2-(((S)-2-(6-cyanopyridin-2-yl)-2-hydroxyethyl)amino)-2-methylpropyl)cyclohexyl)-methanesulfonamide] | > 75 | –
6 | CCOCC12CCC([C@H](O)c3cncc(F)c3)(CC1)N2 [Compound 38, (R)-(4-(ethoxymethyl)-7-azabicyclo[2.2.1]heptan-1-yl)(5-fluoropyridin-3-yl) methanol] | 50 to 75 | –
7 | O[C@H](c1cccc(F)c1)C12CCC(Cc3ccccc3)(CC1)N2 [Compound 43, (R)-(4-benzyl-7-azabicyclo-[2.2.1]heptan-1-yl)(3-fluoro-phenyl)methanol] | 50 to 75 | –
8 | CC(C)(C[C@H]1CC[C@H](NS(C)(=O)=O)CC1)NC[C@H](O)c1cccc(F)c1 [Compound 45, N-((trans)-4-(2-(((R)-2-(3-fluorophenyl)-2-hydroxy-ethyl)amino)-2-methyl-propyl)cyclohexyl)methane-sulfonamide] | – | ++ (activity of more than 75% of that of isoproterenol at 10 μM)
9 | CC12CC(C1)[C@H]([C@H](O)c1cccc(F)c1)N2 [Compound 55, (R)-(3-fluorophenyl)((R)-1-methyl-2-azabicyclo[2.1.1]-hexan-3-yl)methanol] | 50 to 75 | –
10 | CC(C)(C)[C@H]1CC[C@H]([C@H](O)c2cccc(F)c2)N1 [Compound 57, (R)-((2R,5R)-5-(tert-butyl)-pyrrolidin-2-yl)(3-fluoro-phenyl)methanol] | 50 to 75 | –
11 | CC1(C)CC[C@H]([C@H](O)c2cccc(Cl)c2)N1 [Compound 58, (R)-(3-chlorophenyl)((R)-5,5-dimethylpyrrolidin-2-yl)-methanol] | 50 to 75 | –
12 | CC(C)(C)NC[C@H](O)c1ccc(F)c(N)c1F [Compound 59, (R)-1-(3-amino-2,4-difluoro-phenyl)-2-(tert-butylamino)-ethan-1-ol] | > 75 | –
13 | CC(C)(C)NC[C@H](O)c1cccc(N)c1F [Compound 61, (R)-1-(3-amino-2-fluoro-phenyl)-2-(tert-butylamino)-ethan-1-o] | > 75 | –
14 | CC1(NC[C@H](O)c2cccc(O)c2)CCC1 [Compound 62, (R)-3-(1-hydroxy-2-((1-methylcyclobutyl)amino)-ethyl)phenol] | > 75 | –
15 | CC1(NC[C@H](O)c2cccc(F)c2)CC1 [Compound 63, (R)-1-(3-fluorophenyl)-2-((1-methylcyclopropyl)amino)-ethan-1-ol] | 50 to 75 | –
16 | CCCCNC[C@H](O)c1ccccc1F [Compound 64, (R)-2-(butylamino)-1-(2-fluorophenyl)ethan-1-ol] | > 75 | –
17 | CC(C)(C)NC[C@H](O)c1cccc(F)c1F [Compound 65, (R)-2-(tert-butylamino)-1-(2,3-difluorophenyl)ethan-1-ol] | > 75 | –
18 | CCC[C@@H](C)NC[C@H](O)c1cccc(F)c1 [Compound 66, (R)-1-(3-fluorophenyl)-2-(((R)-pentan-2-yl)amino)-ethan-1-ol] | > 75 | –
19 | CCCCNCC(O)c1ccc(F)c(N)c1F (centres unmarked) [Compound 67, 1-(3-amino-2,4-difluoro-phenyl)-2-(butylamino)ethan-1-ol] | 50 to 75 | –
20 | CCC[C@H](C)NC[C@H](O)c1cccc(O)c1 [Compound 68, 3-((R)-1-hydroxy-2-(((S)-pentan-2-yl)amino)ethyl)-phenol] | > 75 | –

Now from value to compound, other results behind:

Row | Emax at 10 µM [%] | SMILES | Activity (intracellular cAMP compared to that of isoproterenol) (10 μM)
21 | > 75 | CO[C@H]1CC[C@@H](CC(C)(C)NC[C@H](O)c2ccc(F)c(N)c2F)CC1 [Compound 36, (R)-1-(3-amino-2,4-difluoro-phenyl)-2-((1-((cis)-4-methoxycyclohexyl)-2-methylpropan-2-yl)amino)-ethan-1-ol] | –
22 | > 75 | CO[C@H]1CC[C@H](CC(C)(C)NC[C@H](O)c2ccc(F)c(N)c2F)CC1 [Compound 37, (R)-1-(3-amino-2,4-difluoro-phenyl)-2-((1-((trans)-4-methoxycyclohexyl)-2-methylpropan-2-yl)amino)-ethan-1-ol] | –
23 | > 75 | CO[C@H]1CC[C@H](CC[C@@H]2CC[C@H]([C@H](O)c3cccc(F)c3)N2)CC1 [Compound 39, (R)-(3-fluorophenyl)((2R,5R)-5-(2-((tranbs)-4-methoxy-cyclohexyl)ethyl)pyrrolidin-2-yl)methanol] | –
24 | 50 to 75 | CC(C)(C[C@H]1CC[C@H](C#N)CC1)NC[C@H](O)c1cccc(F)c1 [Compound 40, (trans)-4-(2-(((R)-2-(3-fluorophenyl)-2-hydroxy-ethyl)amino)-2-methyl-propyl)cyclohexane-1-carbonitrile] | –
25 | > 75 | CCOC(=O)CO[C@H]1CC[C@H](C(C)(C)NC[C@H](O)c2cccc(F)c2)CC1 [Compound 41, ethyl 2-(((1R,4r)-4-(2-(((R)-2-(3-fluorophenyl)-2-hydroxyethyl)amino)propan-2-yl)cyclohexyl)oxy)acetate] | –
26 | > 75 | O[C@H](c1cccc(F)c1)[C@H]1CC[C@@H](Cc2ccc(Cl)cc2)N1 [Compound 42, (R)-((2R,5S)-5-(4-chloro-benzyl)pyrrolidin-2-yl)(3-fluorophenyl)methanol] | –
27 | > 75 | CC(C)(NC[C@H](O)c1cccc(F)c1)[C@H]1CC[C@H](NC(=O)c2ccccc2)CC1 [Compound 44, N-((trans)-4-(2-(((R)-2-(3-fluorophenyl)-2-hydroxy-ethyl)amino)propan-2-yl)-cyclohexyl)benzamide] | –
28 | > 75 | CC(C)(C[C@H]1CC[C@H](NS(C)(=O)=O)CC1)NC[C@H](O)c1cncc(F)c1 [Compound 46, N-((trans)-4-(2-(((R)-2-(5-fluoropyridin-3-yl)-2-hydroxyethyl)amino)-2-methylpropyl)cyclohexyl) methanesulfonamide] | –
29 | 50 to 75 | COC(=O)[C@H]1CC[C@H](CCC(C)(C)NC[C@H](O)c2cncc(F)c2)CC1 [Compound 47, methyl (trans)-4-(3-(((R)-2-(5-fluoropyridin-3-yl)-2-hydroxyethyl)amino)-3-methylbutyl)cyclohexane-1-carboxylate] | –
30 | 50 to 75 | CO[C@H]1CC[C@H](C[C@H]2CC[C@H]([C@H](O)c3ccccc3F)N2)CC1 [Compound 48, (R)-(2-fluorophenyl)((2R,5R)-5-(((trans)-4-methoxycyclo-hexyl)methyl)pyrrolidin-2-yl)-methanol] | –
31 | 50 to 75 | CO[C@H]1CC[C@H](C[C@@H]2CC[C@H]([C@H](O)c3ccccc3F)N2)CC1 [Compound 49, (R)-(2-fluorophenyl)((2R,5S)-5-(((trans)-4-methoxycyclo-hexyl)methyl)pyrrolidin-2-yl)-methanol] | –
32 | 50 to 75 | CC(C)(CC[C@H]1CC[C@@H](O)CC1)NC[C@H](O)c1ccccc1F [Compound 50, (cis)-4-(3-(((R)-2-(2-fluoro-phenyl)-2-hydroxyethyl)-amino)-3-methylbutyl)-cyclohexan-1-ol] | –
33 | > 75 | CC(C)(CC[C@H]1CC[C@H](O)CC1)NC[C@H](O)c1ccccc1F [Compound 51, (trans)-4-(3-(((R)-2-(2-fluorophenyl)-2-hydroxy-ethyl)amino)-3-methylbutyl)-cyclohexan-1-ol] | –
34 | > 75 | CC(C)(C[C@H]1CC[C@H](O)CC1)NC[C@H](O)c1cccc(F)c1 [Compound 52, (trans)-4-(2-(((R)-2-(3-fluorophenyl)-2-hydroxy-ethyl)amino)-2-methyl-propyl)cyclohexan-1-ol] | –
35 | 50 to 75 | CO[C@H]1CC[C@@H](CC(C)(C)NC[C@H](O)c2cccc(F)c2)CC1 [Compound 53, (R)-1-(3-fluorophenyl)-2-((1-((cis)-4-methoxycyclohexyl)-2-methylpropan-2-yl)-amino)ethan-1-ol] | –
36 | 50 to 75 | CO[C@H]1CC[C@H](C(C)(C)NC[C@H](O)c2cccc(F)c2)CC1 [Compound 54, (R)-1-(3-fluorophenyl)-2-((2-((trans)-4-methoxycyclo-hexyl)propan-2-yl)amino)-ethan-1-ol] | –
37 | > 75 | O[C@H](c1cccc(F)c1)[C@H]1CCC2(CCCC2)N1 [Compound 56, (R)-(3-fluorophenyl)((R)-1-azaspiro[4.4]nonan-2-yl)-methanol] | –
38 | > 75 | CC(C)(C)NCC(O)c1ccncc1O (centres unmarked) [Compound 60, 4-(2-(tert-butylamino)-1-hydroxyethyl)pyridin-3-ol] | –
